For two compounds, Activity and IC50 results are on record in ChEMBL document CHEMBL2401684, “Synthesis and evaluation of a conditionally-silent agonist for the α7 nicotinic acetylcholine receptor” (Bioorg Med Chem Lett, 2013).

Molecules are shown by their SMILES. The source made the active and inactive calls. The rule behind the calls is not given here.

In test [1] the target is Neuronal acetylcholine receptor subunit alpha-7 (Rattus norvegicus) (UniProt Q05941). Description: Agonist activity at rat alpha7 nAChR expressed in Xenopus laevis oocytes assessed as induction of acetylcholine-stimulated peak inward current by two-electrode voltage clamp assay. Type of test: cell-based. Conditions: Oocyte. In general terms: Two-electrode voltage clamp holds a large cell at a set potential and records current.
Sequence of Neuronal acetylcholine receptor subunit alpha-7 (Rattus norvegicus) (Q05941 whole entry): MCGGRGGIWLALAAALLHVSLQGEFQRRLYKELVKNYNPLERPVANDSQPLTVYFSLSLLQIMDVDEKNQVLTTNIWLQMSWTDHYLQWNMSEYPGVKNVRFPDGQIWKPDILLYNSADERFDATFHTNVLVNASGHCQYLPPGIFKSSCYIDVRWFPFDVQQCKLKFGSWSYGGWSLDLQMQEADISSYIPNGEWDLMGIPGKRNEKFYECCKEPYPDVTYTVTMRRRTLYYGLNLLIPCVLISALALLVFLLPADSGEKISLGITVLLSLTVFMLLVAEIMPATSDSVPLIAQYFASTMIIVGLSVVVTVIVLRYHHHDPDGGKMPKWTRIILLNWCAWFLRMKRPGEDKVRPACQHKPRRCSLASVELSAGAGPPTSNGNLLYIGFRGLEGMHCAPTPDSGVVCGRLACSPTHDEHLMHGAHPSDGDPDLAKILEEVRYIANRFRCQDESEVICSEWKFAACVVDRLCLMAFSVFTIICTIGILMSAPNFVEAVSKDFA

Test [2] addresses T1, Neuronal acetylcholine receptor subunit alpha-7 (Homo sapiens, UniProt P36544). Description: Agonist activity at human alpha7 nAChR expressed in Xenopus laevis oocytes assessed as induction of acetylcholine-stimulated peak inward current by two-electrode voltage clamp assay. It counts as cell-based. To be noted: Oocyte.
Test [3] concerns the target T1, Neuronal acetylcholine receptor subunit alpha-7. Description: Agonist activity at human alpha7 nAChR expressed in Xenopus laevis oocytes assessed as induction of peak current at 100 uM. Conditions: Oocyte. Type of test: cell-based.
Test [4] shares this target. Description: Silent agonist activity at human alpha7 nAChR expressed in Xenopus laevis oocytes assessed as induction of PNU-120596-stimulated peak current at 100 uM. It counts as cell-based. Conditions: Oocyte.
Test [5] shares this target. Description: Silent agonist activity at human alpha7 nAChR expressed in Xenopus laevis oocytes assessed as induction of TQS-stimulated peak current. Type of test: cell-based. Conditions: Oocyte.
Test [6] has the same target. Description: Silent agonist activity at human alpha7 nAChR expressed in Xenopus laevis oocytes assessed as induction of PNU-120596-stimulated peak current. It counts as cell-based, Oocyte.
For test [7] the target is unchanged. Description: Silent agonist activity at human alpha7 nAChR expressed in Xenopus laevis oocytes assessed as induction of PNU-120596-stimulated peak current in presence of methyllycaconitine. Conditions: Oocyte. It counts as cell-based.
Test [8] shares this target. Description: Antagonist activity at human alpha7 nAChR expressed in Xenopus laevis oocytes assessed as reduction of acetylcholine-induced peak current at 100 uM. Conditions: Oocyte. Type of test: cell-based.

T1 sequence (P36544 whole entry): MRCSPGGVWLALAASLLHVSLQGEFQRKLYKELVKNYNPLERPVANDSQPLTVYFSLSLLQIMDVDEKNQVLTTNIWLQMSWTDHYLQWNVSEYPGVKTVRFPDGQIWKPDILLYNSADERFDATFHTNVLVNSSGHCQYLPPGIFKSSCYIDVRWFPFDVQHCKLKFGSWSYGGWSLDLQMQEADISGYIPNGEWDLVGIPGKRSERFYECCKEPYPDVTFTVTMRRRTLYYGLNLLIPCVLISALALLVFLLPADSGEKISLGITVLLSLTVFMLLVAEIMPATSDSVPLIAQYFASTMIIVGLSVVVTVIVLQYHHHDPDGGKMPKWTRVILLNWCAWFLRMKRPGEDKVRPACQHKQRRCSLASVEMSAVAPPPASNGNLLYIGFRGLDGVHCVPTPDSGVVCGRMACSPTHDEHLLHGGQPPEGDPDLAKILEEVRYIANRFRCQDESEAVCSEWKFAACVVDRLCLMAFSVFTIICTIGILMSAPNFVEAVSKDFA

For `O=C(c1ccc(-c2cccc(C(F)(F)F)c2)o1)N1CCN2CCC1CC2`, the Activity in test [1] and in test [2] was less than 2% in each case.
Turning to `c1ccc(-c2cncc(C3=NCCCC3)c2)cc1`, the result in test [3] and in test [7] was inactive. Besides, the result in test [4], in test [5] and in test [8] was Active. Also, in test [6], the IC50 was determined as 41 µM.

What is called IC50 is the point on the concentration scale where inhibition reaches its midpoint.
